We go through four compounds from patent US20220370416A1, “COMPOUNDS AND METHODS FOR TARGETED DEGRADATION OF KRAS” (Arvinas Operations, Inc., priority 2020, published 2022).

Assay [1] concerns the target T1, HiBit-KRAS^G12C (Homo sapiens, UniProt P01116, G12C). Nature of the assay: HiBit degradation assay in MiaPaCa-2 HiBit-KRas^G12C cells. In kind it is cell-based. To be noted: 0.5% DMSO, 24 hours; for DC50: read-out: KRas^G12C-HiBiT (MiaPaCa; 0.5% DMSO) IC50; for Dmax: MIA PaCa-2, MiaPaCa-2 HiBit-KRas^G12C cells, read-out: KRas^G12C-HiBiT (MiaPaCa; 0.5% DMSO) DMax. The procedure, abridged:
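MiaPaCa-2 cells with CRISPR N-terminal HiBit knock-in on one endogenous KRAS^G12C allele, treated 24 hours at 37° C with compound titrated 10 μM to 20 nM (0.1% or 0.5% DMSO). Lytic HiBit luminescence normalized to DMSO, 4-parameter fit giving DC50 and Dmax; points cytotoxic to […] cells by alamar blue excluded.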
(In general: The HiBiT peptide binds its large partner to form an active luciferase.)

The target of assay [2] is T1, HiBit-KRAS^G12C. The assay is described as follows: HiBit degradation assay in SW1573 HiBit-KRas^G12C cells. To be noted: 0.5% DMSO, 24 hours; for Dmax: SW1573, SW1573 HiBit-KRas^G12C, read-out: KRas^G12C-HiBiT (SW1573; 0.5% DMSO) Dmax**; for DC50: read-out: KRas^G12C-HiBiT (SW1573; 0.5% DMSO) IC50***, SW1573 HiBit-KRas^G12C. Set-up: expressed in transfected cells; host or cells: SW1573 (clone E6), modified pcDNA3.1 vector, TK promoter. In kind it is cell-based. The essentials:
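SW1573 cells stably expressing N-terminally HiBit-tagged KRAS G12C, under the TK promoter, were treated 24 h at 37 °C with 10 μM to 20 nM compound in 0.1% or 0.5% DMSO. Residual HiBit luminescence normalised to DMSO and fitted with a 4-parameter model for DC50 and Dmax. Points with ≥50% viability loss (alamar blue) excluded.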

The mark [3] stands for this setting: MiaPaCa-2 HiBit-KRas^G12C cells.

T1 sequence (P01116 1-186 isoform P01116-2 G12C limits assumed): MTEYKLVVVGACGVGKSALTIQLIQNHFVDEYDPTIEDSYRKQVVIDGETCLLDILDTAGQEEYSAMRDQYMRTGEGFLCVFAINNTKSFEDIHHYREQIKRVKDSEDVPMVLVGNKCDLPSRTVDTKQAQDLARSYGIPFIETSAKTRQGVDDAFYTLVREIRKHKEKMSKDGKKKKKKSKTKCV

In the case of `C=CC(=O)N1CCN(c2nc(OCCN3CCC(COc4cc([C@H](C(=O)N5C[C@H](O)C[C@H]5C(=O)N[C@@H](C)c5ccc(-c6scnc6C)cc5)C(C)C)on4)CC3)nc3c(F)c(-c4cc(O)cc5ccccc45)c(Cl)cc23)CC1` (atropisomer, axis not shown) [Compound 147, (2S,4R)-1-[(2R)-2-(3-{[1-(2-{[6-chloro-8-fluoro-7-(3-hydroxynaphthalen-1-yl)-4-[4-(prop-2-enoyl)piperazin-1-yl]quinazolin-2-yl]oxy}ethyl)piperidin-4-yl]methoxy}-1,2-oxazol-5-yl)-3-methylbutanoyl]-4-hydroxy-N-[(1S)-1-[4-(4-methyl-1,3-thiazol-5-yl)phenyl]ethyl]pyrrolidine-2-carboxamide], at HiBit-KRAS^G12C [1] (MiaPaCa-2 HiBit-KRas^G12C cells, maximum degradation), the “KRas^G12C-HiBiT (MiaPaCa; 0.5% DMSO) DMax” value is “B (35 < B < 70)”. Further, the DC50 at HiBit-KRAS^G12C [1] (setting [3]) fell in the range of 100 to 1000 nM. Also, on HiBit-KRAS^G12C [2], the Dmax is above 70% and the DC50 was 100 to 1000 nM.

Regarding `C=C(F)C(=O)N1CCN(c2nc(OCCN3CCC(COCC(=O)N[C@H](C(=O)N4C[C@H](O)C[C@H]4C(=O)N[C@@H](C)c4ccc(-c5scnc5C)cc4)C(C)(C)C)CC3)nc3c(F)c(-c4cc(O)cc5ccccc45)c(Cl)cc23)C[C@@H]1CC#N` (atropisomer, axis not shown) [Compound 151, (2S,4R)-1-[(2S)-2-[2-({1-[2-({6-chloro-4-[(3S)-3-(cyanomethyl)-4-(2-fluoroprop-2-enoyl)piperazin-1-yl]-8-fluoro-7-(3-hydroxynaphthalen-1-yl)quinazolin-2-yl}oxy)ethyl]piperidin-4-yl}methoxy)acetamido]-3,3-dimethylbutanoyl]-4-hydroxy-N-[(1S)-1-[4-(4-methyl-1,3-thiazol-5-yl)phenyl]ethyl]pyrrolidine-2-carboxamide], on HiBit-KRAS^G12C [1] (maximum degradation), the Dmax is above 70%. Also, on HiBit-KRAS^G12C [2], the Dmax is above 70% and the DC50 is below 100 nM.

In the case of `C=CC(=O)N1CCN(c2nc(OCCN3CCC(COc4cc([C@@H](C(=O)N5C[C@H](O)C[C@H]5C(=O)N[C@@H](C)c5ccc(-c6scnc6C)cc5)C(C)C)on4)CC3)nc3c(F)c(-c4cc(O)cc5ccccc45)c(Cl)cc23)C[C@@H]1CC#N` (atropisomer, axis not shown) [Compound 154, (2S,4R)-1-[(2S)-2-[3-({1-[2-({6-chloro-4-[(3S)-3-(cyanomethyl)-4-(prop-2-enoyl)piperazin-1-yl]-8-fluoro-7-(3-hydroxynaphthalen-1-yl)quinazolin-2-yl}oxy)ethyl]piperidin-4-yl}methoxy)-1,2-oxazol-5-yl]-3-methylbutanoyl]-4-hydroxy-N-[(1S)-1-[4-(4-methyl-1,3-thiazol-5-yl)phenyl]ethyl]pyrrolidine-2-carboxamide], the Dmax on HiBit-KRAS^G12C [1] (maximum degradation) is below 35%. Further, the DC50 was 100 to 1000 nM on HiBit-KRAS^G12C [1] (setting [3]) and above 1000 nM on HiBit-KRAS^G12C [2].

Consider `C=CC(=O)N1CCN(c2nc(OCCN3CCC(COCC(=O)N[C@H](C(=O)N4C[C@@H](O)C[C@H]4C(=O)N[C@@H](C)c4ccc(-c5scnc5C)cc4)C(C)(C)C)CC3)nc3c(F)c(-c4cc(O)cc5ccccc45)c(Cl)cc23)C[C@@H]1CC#N` (atropisomer, axis not shown) [Compound 162, (2S,4S)-1-[(2S)-2-[2-({1-[2-({6-chloro-4-[(3S)-3-(cyanomethyl)-4-(prop-2-enoyl)piperazin-1-yl]-8-fluoro-7-(3-hydroxynaphthalen-1-yl)quinazolin-2-yl}oxy)ethyl]piperidin-4-yl}methoxy)acetamido]-3,3-dimethylbutanoyl]-4-hydroxy-N-[(1S)-1-[4-(4-methyl-1,3-thiazol-5-yl)phenyl]ethyl]pyrrolidine-2-carboxamide], for which the Dmax at HiBit-KRAS^G12C [1] (maximum degradation) is 35 to 70%; on HiBit-KRAS^G12C [2] it was below 35%.
